Test results published in paper PMC5218480 (PLoS ONE, 2017).

Test system: MV-4-11 cells
Experiment: Gene expression microarray analysis (Affymetrix PrimeView) and GSEA
Format: cell-based, human
Set-up: RFU PODN (11730768_x_at) / Fold change /veh PODN (11730768_x_at) / RFU LINC00158 (11744669_a_at) / Fold change /veh LINC00158 (11744669_a_at) / RFU DUSP10 (11751237_a_at) / Fold change /veh DUSP10 (11751237_a_at) / RFU ID3 (11757404_x_at) / Fold change /veh ID3 (11757404_x_at) / RFU PLEKHG5 (11737974_s_at) / Fold change /veh PLEKHG5 (11737974_s_at) / RFU LRRC4B (11730491_at) / Fold change /veh LRRC4B (11730491_at) / RFU GIMAP4 (11747438_a_at) / Fold change /veh GIMAP4 (11747438_a_at) / RFU KRT8 (11758183_x_at) / Fold change /veh KRT8 (11758183_x_at) / RFU CNN1 (11734310_a_at) / Fold change /veh CNN1 (11734310_a_at) / RFU VPS37D (11726825_at) / Fold change /veh VPS37D (11726825_at) / RFU C10orf10 (11716522_x_at) / Fold change /veh C10orf10 (11716522_x_at) / RFU KIR2DL2 /// KIR2DL4 /// KIR2DL5A /// KIR2DL5B /// KIR2DS1 /// KIR2DS2 /// KIR2DS3 /// KIR2DS4 /// KIR3DL3 /// KIR3DL3 /// KIR3DS1 (11738374_at) / Fold change /veh KIR2DL2 /// KIR2DL4 /// KIR2DL5A /// KIR2DL5B /// KIR2DS1 /// KIR2DS2 /// KIR2DS3 /// KIR2DS4 /// KIR3DL3 /// KIR3DL3 /// KIR3DS1 (11738374_at) / RFU C1QL1 (11718748_at) / Fold change /veh C1QL1 (11718748_at) / RFU TMPRSS4 (11747572_a_at) / Fold change /veh TMPRSS4 (11747572_a_at) / RFU HAMP (11756126_x_at) / Fold change /veh HAMP (11756126_x_at) / RFU RNFT2 (11725882_a_at) / Fold change /veh RNFT2 (11725882_a_at) / RFU NR4A2 (11747474_a_at) / Fold change /veh NR4A2 (11747474_a_at) / RFU ABCC12 (11746883_a_at) / Fold change /veh ABCC12 (11746883_a_at) / RFU TMEM136 (11760407_x_at) / Fold change /veh TMEM136 (11760407_x_at) / RFU CLDN22 /// WWC2 (11732394_at) / Fold change /veh CLDN22 /// WWC2 (11732394_at) / RFU HLA-DPB1 (11760878_x_at) / Fold change /veh HLA-DPB1 (11760878_x_at) / RFU SPINT1 (11716480_a_at) / Fold change /veh SPINT1 (11716480_a_at) / RFU GAP43 (11754022_s_at) / Fold change /veh GAP43 (11754022_s_at) / RFU A4GNT (11735810_at) / Fold change /veh A4GNT (11735810_at) / RFU PRB3 (11715151_x_at) / Fold change /veh PRB3 (11715151_x_at) / RFU TUBB4B (11761932_at) / Fold change /veh TUBB4B (11761932_at) / RFU CAPN14 (11732068_a_at) / Fold change /veh CAPN14 (11732068_a_at) / RFU TMCC2 (11721928_a_at) / Fold change /veh TMCC2 (11721928_a_at) / RFU IRGQ (11745062_a_at) / Fold change /veh IRGQ (11745062_a_at) / RFU FAM174B (11720279_a_at) / Fold change /veh FAM174B (11720279_a_at) / RFU TMPRSS4 (11748680_a_at) / Fold change /veh TMPRSS4 (11748680_a_at) / RFU FAM212B (11763350_a_at) / Fold change /veh FAM212B (11763350_a_at) / RFU PLEKHG5 (11743358_a_at) / Fold change /veh PLEKHG5 (11743358_a_at) / RFU ZSCAN30 (11745921_a_at) / Fold change /veh ZSCAN30 (11745921_a_at) / RFU CMKLR1 (11741424_a_at) / Fold change /veh CMKLR1 (11741424_a_at) / RFU LOC101060620 /// MAPK8IP1 (11723275_at) / Fold change /veh LOC101060620 /// MAPK8IP1 (11723275_at) / RFU SPTSSB (11747773_x_at) / Fold change /veh SPTSSB (11747773_x_at) / RFU PRSS12 (11739890_at) / Fold change /veh PRSS12 (11739890_at) / RFU BIN1 (11741810_x_at) / Fold change /veh BIN1 (11741810_x_at) / RFU WNT11 (11732464_a_at) / Fold change /veh WNT11 (11732464_a_at) / RFU C10orf10 (11716521_a_at) / Fold change /veh C10orf10 (11716521_a_at) / RFU C5orf56 (11738089_at) / Fold change /veh C5orf56 (11738089_at) / RFU CYB561 (11721691_x_at) / Fold change /veh CYB561 (11721691_x_at) / RFU ANKRD19P (11752326_a_at) / Fold change /veh ANKRD19P (11752326_a_at) / RFU OR2T12 /// OR2T33 /// OR2T8 (11738714_s_at) / Fold change /veh OR2T12 /// OR2T33 /// OR2T8 (11738714_s_at) / RFU VCAN (11748164_a_at) / Fold change /veh VCAN (11748164_a_at) / RFU JSRP1 (11732532_at) / Fold change /veh JSRP1 (11732532_at) / RFU KRTAP10-11 (11738290_x_at) / Fold change /veh KRTAP10-11 (11738290_x_at) / RFU MYO3A (11730013_a_at) / Fold change /veh MYO3A (11730013_a_at) / RFU EBF3 (11725865_a_at) / Fold change /veh EBF3 (11725865_a_at) / RFU CAMK2N1 (11719241_x_at) / Fold change /veh CAMK2N1 (11719241_x_at) / RFU C5orf56 (11738088_a_at) / Fold change /veh C5orf56 (11738088_a_at) / RFU OLFML3 (11715873_a_at) / Fold change /veh OLFML3 (11715873_a_at) / RFU LOC100653217 /// NTM (11731650_a_at) / Fold change /veh LOC100653217 /// NTM (11731650_a_at) / RFU MAPK11 (11762145_a_at) / Fold change /veh MAPK11 (11762145_a_at) / RFU FIZ1 (11724087_x_at) / Fold change /veh FIZ1 (11724087_x_at) / RFU OASL (11726364_x_at) / Fold change /veh OASL (11726364_x_at) / RFU SOX15 (11748057_x_at) / Fold change /veh SOX15 (11748057_x_at) / RFU CD79A (11719716_a_at) / Fold change /veh CD79A (11719716_a_at) / RFU HIST1H1D (11736915_at) / Fold change /veh HIST1H1D (11736915_at) / RFU CASKIN2 (11723855_a_at) / Fold change /veh CASKIN2 (11723855_a_at) / RFU LOC730098 (11760151_x_at) / Fold change /veh LOC730098 (11760151_x_at) / RFU OR4N2 (11742367_at) / Fold change /veh OR4N2 (11742367_at) / RFU PRRT2 (11749266_a_at) / Fold change /veh PRRT2 (11749266_a_at) / RFU SNX32 (11753110_a_at) / Fold change /veh SNX32 (11753110_a_at) / RFU CDHR5 (11726645_a_at) / Fold change /veh CDHR5 (11726645_a_at) / RFU RCAN1 (11760418_a_at) / Fold change /veh RCAN1 (11760418_a_at) / RFU FAM167A (11723789_a_at) / Fold change /veh FAM167A (11723789_a_at) / RFU FAM26E (11764081_at) / Fold change /veh FAM26E (11764081_at) / RFU ISYNA1 (11749810_s_at) / Fold change /veh ISYNA1 (11749810_s_at) / RFU ACY1 (11761880_at) / Fold change /veh ACY1 (11761880_at) / RFU 11764098_at / Fold change /veh 11764098_at / RFU SAMD14 (11745864_x_at) / Fold change /veh SAMD14 (11745864_x_at) / RFU NPB (11741838_a_at) / Fold change /veh NPB (11741838_a_at) / RFU TMPRSS6 (11731388_a_at) / Fold change /veh TMPRSS6 (11731388_a_at) / RFU KRTAP10-2 (11738614_at) / Fold change /veh KRTAP10-2 (11738614_at) / RFU ARHGAP8 /// PRR5-ARHGAP8 (11727945_x_at) / Fold change /veh ARHGAP8 /// PRR5-ARHGAP8 (11727945_x_at) / RFU KRTAP5-7 /// NADSYN1 (11734609_at) / Fold change /veh KRTAP5-7 /// NADSYN1 (11734609_at) / RFU RASL12 (11751679_a_at) / Fold change /veh RASL12 (11751679_a_at) / RFU CDKN2B (11736163_a_at) / Fold change /veh CDKN2B (11736163_a_at) / RFU PRF1 (11729649_at) / Fold change /veh PRF1 (11729649_at) / RFU, ZNF638 /// ZNF638-IT1 / Fold change vs veh, ZNF638 /// ZNF638-IT1 / RFU, PANK3 / Fold change vs veh, PANK3 / RFU, SH3YL1 / Fold change vs veh, SH3YL1 / RFU, ZEB2 / Fold change vs veh, ZEB2 / RFU, NRIP1 / Fold change vs veh, NRIP1 / RFU, PTTG1IP / Fold change vs veh, PTTG1IP / RFU, CAPN2 / Fold change vs veh, CAPN2 / RFU, MED14 / Fold change vs veh, MED14 / RFU, SNORA58 / Fold change vs veh, SNORA58 / RFU, C1orf63 / Fold change vs veh, C1orf63 / RFU, LRRFIP1 / Fold change vs veh, LRRFIP1 / RFU, NDUFAF7 / Fold change vs veh, NDUFAF7 / RFU, SLC12A2 / Fold change vs veh, SLC12A2 / RFU, IBTK / Fold change vs veh, IBTK / RFU, ESF1 / Fold change vs veh, ESF1 / Fold change vs veh, TMEM50B / RFU, TAOK1 / Fold change vs veh, TAOK1 / RFU, ACBD3 / Fold change vs veh, ACBD3 / RFU, TMA16 / Fold change vs veh, TMA16 / RFU, RWDD3 / Fold change vs veh, RWDD3 / RFU, BCAT1 / Fold change vs veh, BCAT1 / RFU, EDEM3 / Fold change vs veh, EDEM3 / RFU, TMEM33 / Fold change vs veh, TMEM33 / RFU, WDR75 / Fold change vs veh, WDR75 / RFU, AHCTF1 / Fold change vs veh, AHCTF1 / RFU, TFRC / Fold change vs veh, TFRC / RFU, ZDHHC17 / Fold change vs veh, ZDHHC17 / RFU, NOM1 / Fold change vs veh, NOM1 / RFU, ARL8B / Fold change vs veh, ARL8B / RFU, ZBTB11 / Fold change vs veh, ZBTB11 / RFU, TAMM41 / Fold change vs veh, TAMM41 / RFU, KIAA1704 /// LOC100996395 / Fold change vs veh, KIAA1704 /// LOC100996395 / RFU, ING1 / Fold change vs veh, ING1 / RFU, TRMT61B / Fold change vs veh, TRMT61B / RFU, FUBP3 / Fold change vs veh, FUBP3 / RFU, TP53 / Fold change vs veh, TP53 / RFU, TNKS2 / Fold change vs veh, TNKS2 / RFU, ZFP14 / Fold change vs veh, ZFP14 / RFU, ACTR2 / Fold change vs veh, ACTR2 / RFU, PPP3R1 / Fold change vs veh, PPP3R1 / RFU, PIK3R1 / Fold change vs veh, PIK3R1 / RFU, HNRNPA1 / Fold change vs veh, HNRNPA1 / RFU, RNF170 / Fold change vs veh, RNF170 / RFU, ZNF28 / Fold change vs veh, ZNF28 / RFU, RNGTT / Fold change vs veh, RNGTT / RFU, OGT / Fold change vs veh, OGT / RFU, BRD1 / Fold change vs veh, BRD1 / RFU, MARS / Fold change vs veh, MARS / RFU, ZNF655 / Fold change vs veh, ZNF655 / RFU, FAHD1 / Fold change vs veh, FAHD1 / RFU, BDP1 / Fold change vs veh, BDP1 / RFU, LRRCC1 / Fold change vs veh, LRRCC1 / RFU, ARID1A / Fold change vs veh, ARID1A / RFU, ZNF146 / Fold change vs veh, ZNF146 / RFU, ZNF330 / Fold change vs veh, ZNF330 / RFU, GPN3 / Fold change vs veh, GPN3 / RFU, C9orf123 / Fold change vs veh, C9orf123 / RFU, N4BP2L2 / Fold change vs veh, N4BP2L2 / RFU, ARFIP1 / Fold change vs veh, ARFIP1 / RFU, FAM179B / Fold change vs veh, FAM179B / RFU, BCL10 / Fold change vs veh, BCL10 / RFU, UHRF1BP1L / Fold change vs veh, UHRF1BP1L / RFU, BET1 / Fold change vs veh, BET1 / RFU, CNOT2 / Fold change vs veh, CNOT2 / RFU, ZNF268 / Fold change vs veh, ZNF268 / Fold change vs veh, ZNF507 / RFU, DGCR2 / Fold change vs veh, DGCR2 / RFU, WDSUB1 / Fold change vs veh, WDSUB1 / Fold change vs veh, HSP90B1 /// MIR3652 / RFU, ADSS / Fold change vs veh, ADSS / RFU, GK / Fold change vs veh, GK / RFU, ZNF148 / Fold change vs veh, ZNF148 / RFU, TAF9 / Fold change vs veh, TAF9 / RFU, SLC1A5 / Fold change vs veh, SLC1A5 / RFU, SLMO2 / Fold change vs veh, SLMO2 / RFU, ABCC4 / Fold change vs veh, ABCC4 / RFU, LOC101060439 /// RAP1B / Fold change vs veh, LOC101060439 /// RAP1B / RFU, RFX7 / Fold change vs veh, RFX7 / RFU, GTPBP10 / Fold change vs veh, GTPBP10 / RFU, CNEP1R1 / Fold change vs veh, CNEP1R1 / RFU, BIVM-ERCC5 /// ERCC5 / Fold change vs veh, BIVM-ERCC5 /// ERCC5 / RFU, ILF3 / Fold change vs veh, ILF3 / RFU 11762660_at / Fold change /veh 11762660_at / RFU VCAN (11757783_s_at) / Fold change /veh VCAN (11757783_s_at) / RFU DDX43 (11728927_at) / Fold change /veh DDX43 (11728927_at) / RFU KRT8 (11758188_x_at) / Fold change /veh KRT8 (11758188_x_at) / RFU NKD1 (11759106_at) / Fold change /veh NKD1 (11759106_at) / RFU SRD5A1 (11742802_a_at) / Fold change /veh SRD5A1 (11742802_a_at) / RFU TPSAB1 /// TPSB2 (11721975_s_at) / Fold change /veh TPSAB1 /// TPSB2 (11721975_s_at) / RFU GSTM3 (11746129_a_at) / Fold change /veh GSTM3 (11746129_a_at) / RFU IL23R (11737362_x_at) / Fold change /veh IL23R (11737362_x_at) / RFU TMEM51 (11727254_a_at) / Fold change /veh TMEM51 (11727254_a_at) / RFU PIWIL2 (11732686_x_at) / Fold change /veh PIWIL2 (11732686_x_at) / RFU ORM1 (11744905_x_at) / Fold change /veh ORM1 (11744905_x_at) / RFU CCDC152 (11743942_at) / Fold change /veh CCDC152 (11743942_at) / RFU ECM1 (11717891_a_at) / Fold change /veh ECM1 (11717891_a_at) / RFU IL23R (11748794_a_at) / Fold change /veh IL23R (11748794_a_at) / RFU TNFAIP8L3 (11732012_x_at) / Fold change /veh TNFAIP8L3 (11732012_x_at) / RFU MBOAT4 (11741988_at) / Fold change /veh MBOAT4 (11741988_at) / RFU 11764193_at / Fold change /veh 11764193_at / RFU TMEM53 (11763286_at) / Fold change /veh TMEM53 (11763286_at) / RFU MAGEB2 (11727129_at) / Fold change /veh MAGEB2 (11727129_at) / RFU TMEM200A (11744735_a_at) / Fold change /veh TMEM200A (11744735_a_at) / RFU CCDC152 (11751479_a_at) / Fold change /veh CCDC152 (11751479_a_at) / RFU FAM211A (11726209_a_at) / Fold change /veh FAM211A (11726209_a_at) / RFU RGS16 (11746705_a_at) / Fold change /veh RGS16 (11746705_a_at) / RFU VCAN (11755009_s_at) / Fold change /veh VCAN (11755009_s_at) / RFU RHOB (11743442_s_at) / Fold change /veh RHOB (11743442_s_at) / RFU RGS16 (11720943_a_at) / Fold change /veh RGS16 (11720943_a_at) / RFU RGS16 (11720944_at) / Fold change /veh RGS16 (11720944_at) / RFU, VPS4B / Fold change vs veh, VPS4B / RFU, CREB1 / Fold change vs veh, CREB1 / RFU, DNAJC13 / Fold change vs veh, DNAJC13 / RFU, GNAQ / Fold change vs veh, GNAQ / RFU, CDK5R1 / Fold change vs veh, CDK5R1 / RFU, ZRANB3 / Fold change vs veh, ZRANB3 / RFU, CUL4A / Fold change vs veh, CUL4A / RFU, CCNY / Fold change vs veh, CCNY / RFU, UFL1 / Fold change vs veh, UFL1 / RFU, COG3 / Fold change vs veh, COG3 / RFU, DIAPH2 / Fold change vs veh, DIAPH2 / RFU, SKA2 / Fold change vs veh, SKA2 / RFU, AFF3 / Fold change vs veh, AFF3 / RFU, LMF1 / Fold change vs veh, LMF1 / RFU, IPO11 / Fold change vs veh, IPO11 / RFU, DFFB / Fold change vs veh, DFFB / RFU, FOXP1 / Fold change vs veh, FOXP1 / RFU, CARD8 / Fold change vs veh, CARD8 / RFU, STRN3 / Fold change vs veh, STRN3 / RFU, ADK / Fold change vs veh, ADK / RFU, RASSF2 / Fold change vs veh, RASSF2 / RFU, WIPF1 / Fold change vs veh, WIPF1 / RFU, LARP1B / Fold change vs veh, LARP1B / RFU, RASA1 / Fold change vs veh, RASA1 / RFU, RB1 / Fold change vs veh, RB1 / RFU, PPFIA1 / Fold change vs veh, PPFIA1 / RFU, MAT2A / Fold change vs veh, MAT2A / RFU, CCT5 / Fold change vs veh, CCT5 / RFU, WDR92 / Fold change vs veh, WDR92 / RFU, CUX1 / Fold change vs veh, CUX1 / RFU, TTC7A / Fold change vs veh, TTC7A / RFU, TMEM135 / Fold change vs veh, TMEM135 / RFU, DEPTOR / Fold change vs veh, DEPTOR / RFU, CPM / Fold change vs veh, CPM / RFU, DNAJB6 / Fold change vs veh, DNAJB6 / RFU, CACNA2D3 / Fold change vs veh, CACNA2D3 / RFU, DTX4 / Fold change vs veh, DTX4 / RFU, TFCP2 / Fold change vs veh, TFCP2 / RFU, GMCL1 /// GMCL1P1 / Fold change vs veh, GMCL1 /// GMCL1P1 / RFU, AEBP2 / Fold change vs veh, AEBP2 / RFU, SNHG1 /// SNORD22 /// SNORD25 /// SNORD26 /// SNORD27 /// SNORD28 /// SNORD29 /// SNORD31 / Fold change vs veh, SNHG1 /// SNORD22 /// SNORD25 /// SNORD26 /// SNORD27 /// SNORD28 /// SNORD29 /// SNORD31 / Fold change (Aza/veh), C12orf56 (ProbeSet 11735607_a_at) / Fold change (ACY-1035/veh), C12orf56 (ProbeSet 11735607_a_at) / Fold change (Aza/veh), FGFR1OP (ProbeSet 11751329_s_at) / Fold change (ACY-1035/veh), FGFR1OP (ProbeSet 11751329_s_at) / Fold change (Aza/veh), VPS36 (ProbeSet 11739960_a_at) / Fold change (ACY-1035/veh), VPS36 (ProbeSet 11739960_a_at) / RFU SYPL1 (11715823_x_at) / Fold change /veh SYPL1 (11715823_x_at) / RFU IGFBP7 (11715501_s_at) / Fold change /veh IGFBP7 (11715501_s_at) / RFU REEP3 (11722064_at) / Fold change /veh REEP3 (11722064_at) / RFU IGLL1 (11728026_x_at) / Fold change /veh IGLL1 (11728026_x_at): dose or concentration left out as unconfirmed
Conditions: MV-4-11 cells, 48 hours

Nc1ncn([C@@H]2O[C@H](CO)[C@@H](O)[C@H]2O)c(=O)n1 [azacitidine]
RFU 11764098_at: 18.12 RFU
